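Compound exposure: 48 hours, 5 concentrations, 96-well plates. GI50 is the concentration that inhibits growth by half. TGI marks complete inhibition of growth.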
Columns and labels:
Experiment in all cases: NCI anticancer screen, dose series, 48 h; in the data active means GI50 below about 0.43 µM; inactive means the rest
[1] = tested on: A549 NSCLC
[2] = tested on: ACHN renal
[3] = tested on: BT-549 breast
[4] = tested on: CAKI-1 renal
[5] = tested on: CCRF-CEM leukemia
[6] = tested on: COLO 205 colon
[7] = tested on: DU-145 prostate
[8] = tested on: EKVX NSCLC
[9] = tested on: HCT-116 colon
[10] = tested on: HCT-15 colon
[11] = tested on: HL-60(TB) leukemia
[12] = tested on: HOP-62 NSCLC
[13] = tested on: HS 578T breast
[14] = tested on: HT29 colon
[15] = tested on: IGROV1 ovarian
[16] = tested on: K-562 leukemia
[17] = tested on: KM12 colon
[18] = tested on: LOX IMVI melanoma
[19] = tested on: M14 melanoma
[20] = tested on: MALME-3M melanoma
[21] = tested on: MCF7 breast
[22] = tested on: MDA-MB-231 breast
[23] = tested on: MDA-MB-435
[24] = tested on: MOLT-4 leukemia
[25] = tested on: NCI-H23 lung
[26] = tested on: NCI-H460 lung
[27] = tested on: NCI/ADR-RES ovarian
[28] = tested on: OVCAR-3 ovarian
[29] = tested on: OVCAR-4 ovarian
[30] = tested on: OVCAR-5 ovarian
[31] = tested on: OVCAR-8 ovarian
[32] = tested on: PC-3 prostate
[33] = tested on: RPMI-8226 leukemia
[34] = tested on: RXF 393 renal
[35] = tested on: SF-268 CNS
[36] = tested on: SF-295 CNS
[37] = tested on: SF-539 CNS
[38] = tested on: SK-MEL-28 melanoma
[39] = tested on: SK-MEL-5 melanoma
[40] = tested on: SK-OV-3 ovarian
[41] = tested on: SN12C renal
[42] = tested on: SNB-19 CNS
[43] = tested on: SNB-75 CNS
[44] = tested on: SR leukemia
[45] = tested on: SW-620 colon
[46] = tested on: T-47D breast
[47] = tested on: TK-10 renal
[48] = tested on: U251 CNS
[49] = tested on: UACC-257 melanoma
[50] = tested on: UACC-62 melanoma
[51] = tested on: UO-31 renal
[52] = tested on: 786-0 renal
[53] = tested on: HCC-2998 colon
[54] = tested on: HOP-92 NSCLC
[55] = tested on: NCI-H226 lung
[56] = tested on: NCI-H522 lung
[57] = tested on: SK-MEL-2 melanoma

CC(=O)c1c(-c2ccco2)c(C#N)c(=S)n(C2OC(CO)C(O)C(O)C2O)c1-c1ccccc1 (stereo not drawn)
> 100 µM: TGI [1] | TGI [2] | TGI [3] | TGI [4] | TGI [5] | TGI [6] | TGI [7] | TGI [8] | TGI [9] | TGI [10] | TGI [12] | TGI [13] | TGI [14] | TGI [15] | TGI [16] | TGI [17] | TGI [18] | TGI [19] | TGI [20] | TGI [21] | TGI [22] | TGI [23] | TGI [24] | TGI [25] | TGI [26] | TGI [27] | TGI [28] | TGI [29] | TGI [30] | TGI [31] | TGI [32] | TGI [33] | TGI [34] | TGI [35] | TGI [36] | TGI [37] | TGI [38] | TGI [39] | TGI [40] | TGI [41] | TGI [43] | TGI [44] | TGI [45] | TGI [46] | TGI [47] | TGI [48] | TGI [49] | TGI [50] | TGI [51]
85.9 µM: TGI [11]
59.7 µM: TGI [42]

COC(=O)Cc1ccc(Oc2nc3ccccc3nc2-c2cccs2)cc1
24.7 µM: TGI [43]
99.8 µM: TGI [55]
48.5 µM: TGI [34]
92.2 µM: TGI [40]
63.3 µM: TGI [54]
> 100 µM: TGI [52] | TGI [1] | TGI [2] | TGI [3] | TGI [4] | TGI [5] | TGI [6] | TGI [7] | TGI [8] | TGI [53] | TGI [9] | TGI [10] | TGI [11] | TGI [12] | TGI [13] | TGI [14] | TGI [15] | TGI [16] | TGI [17] | TGI [18] | TGI [19] | TGI [20] | TGI [21] | TGI [22] | TGI [23] | TGI [24] | TGI [25] | TGI [26] | TGI [56] | TGI [27] | TGI [28] | TGI [29] | TGI [30] | TGI [31] | TGI [32] | TGI [33] | TGI [35] | TGI [36] | TGI [37] | TGI [57] | TGI [38] | TGI [39] | TGI [41] | TGI [42] | TGI [44] | TGI [45] | TGI [46] | TGI [47] | TGI [48] | TGI [49] | TGI [50] | TGI [51]

Nc1nc2cc(-c3ccc4ncc(C(=O)N5CCOCC5)n4c3)ccc2o1
84.5 µM: TGI [42]
74.9 µM: TGI [24]
64.8 µM: TGI [36]
35.6 µM: TGI [51]
88.5 µM: TGI [56]
7.16 µM: TGI [40]
73.3 µM: TGI [37]
active: GI50 [46] 417 nM
27.5 µM: TGI [47]
67.9 µM: TGI [22]
7.15 µM: TGI [20]
46.8 µM: TGI [57]
50.7 µM: TGI [39]
36.7 µM: TGI [34]
6.6 µM: TGI [15]
15.7 µM: TGI [43]
80.3 µM: TGI [48]
30 µM: TGI [13]
9.53 µM: TGI [54]
49.3 µM: TGI [12]
inactive: GI50 [52] 14.6 µM | GI50 [1] 4.86 µM | GI50 [2] 4.28 µM | GI50 [3] 4.39 µM | GI50 [5] 8.74 µM | GI50 [6] 3.44 µM | GI50 [7] 9.09 µM | GI50 [8] 4.26 µM | GI50 [53] 10 µM | GI50 [9] 4.4 µM | GI50 [10] 5.4 µM | GI50 [11] 2950 nM | GI50 [12] 4.23 µM | GI50 [54] 1350 nM | GI50 [13] 3.36 µM | GI50 [14] 3.52 µM | GI50 [15] 1740 nM | GI50 [16] 47 µM | GI50 [17] 14.4 µM | GI50 [18] 4.74 µM | GI50 [19] 4.64 µM | GI50 [20] 1230 nM | GI50 [21] 1390 nM | GI50 [22] 4.89 µM | GI50 [23] 5.71 µM | GI50 [24] 4.15 µM | GI50 [55] 5.2 µM | GI50 [25] 6.58 µM | GI50 [56] 7.13 µM | GI50 [27] 44.6 µM | GI50 [28] 13.9 µM | GI50 [29] 6.07 µM | GI50 [30] 2740 nM | GI50 [31] 13.4 µM | GI50 [32] 3.19 µM | GI50 [33] 6.36 µM | GI50 [34] 5.51 µM | GI50 [35] 9.82 µM | GI50 [36] 5.53 µM | GI50 [37] 9.81 µM | GI50 [57] 5.33 µM | GI50 [38] 5.4 µM | GI50 [39] 3.95 µM | GI50 [40] 1590 nM | GI50 [41] 6.66 µM | GI50 [42] 15.4 µM | GI50 [43] 916 nM | GI50 [44] 2850 nM | GI50 [45] 10.8 µM | GI50 [47] 2410 nM | GI50 [48] 11.1 µM | GI50 [49] 7.8 µM | GI50 [50] 4.14 µM | GI50 [51] 2090 nM
> 100 µM: TGI [52] | TGI [1] | TGI [2] | TGI [5] | TGI [6] | TGI [7] | TGI [8] | TGI [53] | TGI [9] | TGI [10] | TGI [14] | TGI [16] | TGI [17] | TGI [18] | TGI [19] | TGI [21] | TGI [23] | TGI [55] | TGI [25] | TGI [27] | TGI [28] | TGI [29] | TGI [30] | TGI [31] | TGI [32] | TGI [33] | TGI [35] | TGI [38] | TGI [41] | TGI [44] | TGI [45] | TGI [49] | TGI [50]
60.9 µM: TGI [11]
37.9 µM: TGI [3]
3.52 µM: TGI [46]

— PubChem BioAssay (NCI)
